How the values were obtained:
NS3 [1] = biological target: T1, NS3 (Hepatitis C virus genotype 4a, UniProt O39929, A1087S/A1113S/A1121T/A1128S/I1140V/I1160T/I1179L/R1118K/R1176A/S1127A); assay: Binding and competition assay (fluorescence anisotropy, displacement of FITC-NS4A from NS3); design: species or system HCV genotype 4a; conditions: for binding affinity (in words): fluorescence anisotropy competition with FITC-NS4A
T1 construct: NS3 protease domain 1-181 aa+N-terminal T7 tag and C-terminal His tag; T7 tag (N); made in house; host or cells: E. coli Rosette (DE3) pLysS, vector pET-3a
Procedure: Binding buffer (20 mM HEPES, 10 mM DTT, 200 mM NaCl, pH 7.6), a mixture of NS3 (1.8 μM) and FITC-NS4A ([…]) at the calculated affinity constant concentration were placed in a 96-well plate as binding test solution. A serial dilution of MOC compounds (dissolved in 1.5% DMSO in binding buffer) (1/2 dilution starting from 150 μM to 0.292 μM) was mixed gently with the binding text solution for 60 minutes in the dark. The dissociation constant was calculated according to the recommended equation embedded in GraphPad Prism v8.
The binding affinity test was performed using fluorescence anisotropy technique. In this test, maximum fluorescence was first determined at optimal ratio of NS3 (1.8 μM) and FITC-NS4A (0.1 μM). Compounds that compete with NS4A should be able to decrease the fluorescence of this mixture because they prevent the binding to occur and it should be concentration-dependent. […] The reproducibility was checked using another batch of the express NS3 protein following the same procedure and the value was calculated=7.815±1.014 μM. […] Therefore, compound MOC-23 was tested for its ability to inhibit the NS3 enzyme.

NS3 [2] = biological target: T1, NS3; assay: Enzyme inhibition assay (SensoLyte-520 HCV protease assay kit, FRET peptide); assay type: biochemical, HCV genotype 4a; conditions: MOC-23 at 6.3 μM, NS3 4.0 μM, 5-FAM/QXL520 FRET peptide
Procedure: The assay was performed using SensoLyte-520® HCV protease assay kit Fluorometric® (Anaspec, Fremont, Calif., USA) according to a modified procedure to suit the purpose of determination of allosteric inhibition. NS3 (4.0 μM) was mixed with MOC-23 (6.3 μM) for 15 minutes. Afterwards, 5-FAM/QXL™520 fluorescence resonance energy transfer (FRET) peptide was added as instructed by the assay kit manual. The sequence of this FRET peptide (5-FAM-SLGRKIQIQ) is derived from the cleavage site of NS4A/NS4B. In the FRET peptide, the fluorescence of 5-FAM is quenched by QXL™520. Upon cleavage into two separate fragments by HCV NS3/4A protease, the fluorescence of 5-FAM is recovered, and can be monitored at 490 nm/520 nm (excitation/emission). Controls included buffer, compound, compound+NS3, NS3+NS4A and FRET peptide separately. All test wells and controls were repeated in triplicates at the same 96-well plate.

T1 sequence (O39929 1027-1207 A1087S/A1113S/R1118K/A1121T/S1127A/A1128S/I1140V/I1160T/R1176A/I1179L): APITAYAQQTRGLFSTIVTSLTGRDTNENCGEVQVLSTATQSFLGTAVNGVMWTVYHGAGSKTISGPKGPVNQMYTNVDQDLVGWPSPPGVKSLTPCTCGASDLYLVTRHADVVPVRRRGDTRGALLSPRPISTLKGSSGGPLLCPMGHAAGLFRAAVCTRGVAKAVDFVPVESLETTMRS

Compound	binding affinity (in words) (NS3 [1])	Kd (NS3 [1]; dissociation constant (reproducibility check), another batch of the expressed NS3 protein, same procedure) [µM]	Kd (NS3 [1]; dissociation constant Kd (competition with FITC-NS4A), fluorescence anisotropy, NS3 1.8 μM, FITC-NS4A 0.1 μM, first batch of NS3) [µM]	inhibition of NS3 proteolytic activity (NS3 [2])
CCCCCCNC(=O)c1ncc(C(=O)NCCCCNC(=N)N)[nH]1 [MOC-24, N^5-(4-guanidinobutyl)-N^2-(n-hexyl)-1H-imidazole-2,5-dicarboxamide]	binding affinity at similar level			
CCCCCNC(=O)c1ncc(C(=O)NCCCCNC(=N)N)[nH]1 [MOC-23, N^5-(4-guanidinobutyl)-N^2-(n-pentyl)-1H-imidazole-2,5-dicarboxamide]	highest affinity	7.81 ± 1.01	6.3 ± 0.3	abolished any proteolytic activity
